What was measured:
[1] = Plasma Stability Test (IV dosing of prodrug, HPLC analysis of blood plasma); format: in vivo; conditions: dogs, IV at 2 mg/mL, HPLC analysis of blood plasma for 4 hours following dosing
Experimental: The prodrug (3Z)-3-[(3,5-dimethyl-1H-pyrrol-2-yl)-methylidene]-1-(1-pyrrolidinylmethyl)-1,3-dihydro-2H-indol-2-one was administered IV at 2 mg/mL to dogs. Levels of both prodrug and drug (3(Z)-3-[(3,5-dimethyl-1H-pyrrol-2-yl)-methylidene]-1,3-dihydro-2H-indol-2-one) were followed by HPLC analysis of blood plasma for 4 hours following dosing.

SMILES | melting point [°C] | half-life for conversion of the prodrug to drug [1] [min] | prodrug converted into drug (from area under the curve of drug concentration vs. time) [1] [%]
Cc1cc(C)c(/C=C2\C(=O)N(CO)c3ccccc32)[nH]1 | 200 to 202 | – | –
Cc1cc(C)c(/C=C2\C(=O)N(C(=O)CNC(=O)OCc3ccccc3)c3ccccc32)[nH]1 | 193 to 196 | – | –
Cc1cc(C)c(/C=C2\C(=O)N(COC(=O)CCC(=O)O)c3ccccc32)[nH]1 | 160 to 162 | – | –
CC(=O)OC(C)N1C(=O)/C(=C\c2[nH]c(C)cc2C)c2ccccc21 (stereo not drawn) | 107 to 110 | – | –
Cc1cc(C)c(/C=C2\C(=O)N(CN3CCCC3)c3ccccc32)[nH]1 [Example 14, (3Z)-3-[(3,5-dimethyl-1H-pyrrol-2-yl)-methylidene]-1-(1-pyrrolidinylmethyl)-1,3-dihydro-2H-indol-2-one] | – | 7.3 | 80

From patent US7112603B2, “Prodrugs of 3-(pyrrol-2-ylmethylidene)-2-indolinone derivatives” (Agouron Pharmaceuticals, Inc., priority 2000, dated 2006)
